Measurements: ChEMBL document CHEMBL6120940, “Discovery of N-Aryl-N'-[4-(aryloxy)cyclohexyl]squaramide-Based Inhibitors of LXR/SREBP-1c Signaling Pathway Ameliorating Steatotic Liver Disease: Navigating the Role of SIRT6 Activation” (J Med Chem, 2024)
The source made the active and inactive calls. No cut-off for these calls is given here.

Legend:
[1] = tested on: Mus musculus; test: Anti-lipogenic activity against high fat died induced male C57BL/6J mouse obesity model assessed as downregulation of Cxcl1 mRNA level at 15 mg/kg, po administered three times per week and measured after 5 weeks by RT-qPCT analysis; assay type: functional, organism-based
[2] = tested on: Mus musculus; test: Anti-lipogenic activity against high fat died induced male C57BL/6J mouse obesity model assessed as reduction in liver weight at 15 mg/kg, po administered three times per week and measured for 5 weeks; assay type: functional, organism-based
[3] = target: T1, Sterol regulatory element-binding protein 1 (Homo sapiens) (UniProt P36956); test: Inhibition of SREBP-1c transcriptional activity in HEK293 cells expressing LXRalpha/RXRalpha assessed as reduction in SRE-luciferase level pretreated with compound for 30 mins followed by T0901317 addition and measured after 12 hrs by Dual-Glo luciferase assay; assay type: cell-based; conditions: dose 2.5-5 µM, time 12.5 hrs
T1 sequence (whole entry): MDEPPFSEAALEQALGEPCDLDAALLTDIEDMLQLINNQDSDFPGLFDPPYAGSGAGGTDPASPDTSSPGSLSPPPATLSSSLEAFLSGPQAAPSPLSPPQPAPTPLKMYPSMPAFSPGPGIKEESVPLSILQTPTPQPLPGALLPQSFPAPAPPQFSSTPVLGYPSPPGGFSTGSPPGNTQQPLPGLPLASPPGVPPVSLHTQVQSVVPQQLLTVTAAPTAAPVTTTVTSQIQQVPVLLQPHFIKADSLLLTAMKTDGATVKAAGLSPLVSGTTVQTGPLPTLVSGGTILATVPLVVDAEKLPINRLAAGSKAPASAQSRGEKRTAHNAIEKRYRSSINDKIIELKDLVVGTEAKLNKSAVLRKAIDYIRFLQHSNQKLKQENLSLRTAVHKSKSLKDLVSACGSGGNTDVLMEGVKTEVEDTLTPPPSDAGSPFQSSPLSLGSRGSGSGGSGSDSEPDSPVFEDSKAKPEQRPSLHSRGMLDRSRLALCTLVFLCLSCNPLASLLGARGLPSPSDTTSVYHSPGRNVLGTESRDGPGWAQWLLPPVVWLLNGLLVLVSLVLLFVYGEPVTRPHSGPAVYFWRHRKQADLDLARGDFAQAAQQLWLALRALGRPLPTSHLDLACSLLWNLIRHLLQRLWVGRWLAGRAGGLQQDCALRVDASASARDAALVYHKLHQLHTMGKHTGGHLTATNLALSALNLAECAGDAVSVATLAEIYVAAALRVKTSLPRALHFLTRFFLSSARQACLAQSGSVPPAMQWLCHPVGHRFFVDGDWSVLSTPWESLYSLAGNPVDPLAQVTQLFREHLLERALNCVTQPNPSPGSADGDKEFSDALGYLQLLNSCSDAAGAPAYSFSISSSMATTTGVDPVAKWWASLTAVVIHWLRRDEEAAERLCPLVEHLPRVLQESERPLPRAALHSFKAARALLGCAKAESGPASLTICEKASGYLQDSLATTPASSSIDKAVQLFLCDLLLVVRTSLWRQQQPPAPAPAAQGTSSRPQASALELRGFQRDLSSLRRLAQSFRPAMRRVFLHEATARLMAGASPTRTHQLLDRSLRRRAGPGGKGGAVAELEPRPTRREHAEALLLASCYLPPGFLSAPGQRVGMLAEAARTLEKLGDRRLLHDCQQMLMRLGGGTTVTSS

[4] = tested on: HepG2; test: Downregulation of ACACA expression in human HepG2 cells at 5 uM pretreated with compound for 30 mins followed by T0901317 addition and measured after 12 hrs in presence of compound C by immunoblot analysis; assay type: functional, cell-based; conditions: time 12.5 hrs
[5] = target: CYP2C19 (Homo sapiens, UniProt P33261); test: Inhibition of CYP2C19 in human liver microsomes at 10 uM using S-mephenytoin as substrate preincubated for 5 mins followed by NADPH generating system addition and measured after 15 mins relative to control; assay type: ADME, Microsome; conditions: probe S-mephenytoin, time 20 min
Chain of CYP2C19 (P33261 whole entry): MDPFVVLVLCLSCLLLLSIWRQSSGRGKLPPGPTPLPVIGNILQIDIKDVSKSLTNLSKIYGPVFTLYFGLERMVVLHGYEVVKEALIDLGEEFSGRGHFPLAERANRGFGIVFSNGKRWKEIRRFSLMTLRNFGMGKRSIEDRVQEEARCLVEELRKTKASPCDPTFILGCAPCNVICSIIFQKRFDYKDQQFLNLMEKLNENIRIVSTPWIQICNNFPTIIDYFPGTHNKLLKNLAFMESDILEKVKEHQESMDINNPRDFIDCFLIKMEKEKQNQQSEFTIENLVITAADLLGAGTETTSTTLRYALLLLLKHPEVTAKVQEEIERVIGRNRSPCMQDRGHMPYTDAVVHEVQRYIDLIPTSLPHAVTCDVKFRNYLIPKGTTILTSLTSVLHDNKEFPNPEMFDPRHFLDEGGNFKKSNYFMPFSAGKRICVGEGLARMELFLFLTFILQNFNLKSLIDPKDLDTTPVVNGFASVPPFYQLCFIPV

[6] = tested on: HepG2; test: Cytotoxicity against human HepG2 cells at >30 uM measured after 24 hrs by CCK-8 method; assay type: functional, cell-based
[7] = tested on: HepG2; test: Downregulation of SCD mRNA level in human HepG2 cells at 10 uM pretreated with compound for 30 mins followed by GW2935 addition and measured after 12 hrs by RT-qPCR analysis; assay type: functional, cell-based; conditions: time 12.5 hrs
[8] = tested on: Mus musculus; test: Anti-lipogenic activity against high fat died induced male C57BL/6J mouse obesity model assessed as downregulation of Fasn level at 15 mg/kg, po administered three times per week and measured after 5 weeks by RT-qPCT analysis; assay type: functional, organism-based
[9] = target: CYP3A4 (Homo sapiens, UniProt P08684); test: Inhibition of CYP3A4 in human liver microsomes at 10 uM using midazolam as substrate preincubated for 5 mins followed by NADPH generating system addition and measured after 15 mins relative to control; assay type: ADME, Microsome; conditions: probe midazolam, time 20 min
Chain of CYP3A4 (P08684 whole entry): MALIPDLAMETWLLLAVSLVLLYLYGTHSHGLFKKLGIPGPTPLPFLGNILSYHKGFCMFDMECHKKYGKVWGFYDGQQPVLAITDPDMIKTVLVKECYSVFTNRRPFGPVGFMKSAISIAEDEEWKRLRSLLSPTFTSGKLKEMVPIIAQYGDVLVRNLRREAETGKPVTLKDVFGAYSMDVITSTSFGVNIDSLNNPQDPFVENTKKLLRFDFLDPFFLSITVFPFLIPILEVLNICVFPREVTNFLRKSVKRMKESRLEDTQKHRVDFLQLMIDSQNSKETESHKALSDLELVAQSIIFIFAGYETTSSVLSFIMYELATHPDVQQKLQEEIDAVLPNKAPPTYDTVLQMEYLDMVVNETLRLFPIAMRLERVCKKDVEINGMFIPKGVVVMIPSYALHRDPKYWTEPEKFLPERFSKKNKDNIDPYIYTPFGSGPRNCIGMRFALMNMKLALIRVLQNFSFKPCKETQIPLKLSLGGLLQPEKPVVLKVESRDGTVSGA

[10] = Metabolic stability in rat liver microsomes at 1 uM measured after 30 mins in presence of NADPH regeneration system by LC-MS/MS analysis; assay type: ADME, Microsome; conditions: read-out: Stability
[11] = Clearance in 16 hrs fasted ICR mouse at 2 mg/kg, iv measured upto 8 hrs by LC-MS/MS analysis; assay type: ADME, organism-based; conditions: in vivo
[12] = target: NAD-dependent protein deacylase sirtuin-6 (Homo sapiens) (UniProt Q8N6T7); test: Activation of recombinant SIRT6 (unknown origin) using fluoro-substrate peptide as substrate at 2.5 to 400 uM by fluorescence based analysis; conditions: filed as activator, dose 2.5-400 µM
Chain of NAD-dependent protein deacylase sirtuin-6 (Homo sapiens) (Q8N6T7 whole entry): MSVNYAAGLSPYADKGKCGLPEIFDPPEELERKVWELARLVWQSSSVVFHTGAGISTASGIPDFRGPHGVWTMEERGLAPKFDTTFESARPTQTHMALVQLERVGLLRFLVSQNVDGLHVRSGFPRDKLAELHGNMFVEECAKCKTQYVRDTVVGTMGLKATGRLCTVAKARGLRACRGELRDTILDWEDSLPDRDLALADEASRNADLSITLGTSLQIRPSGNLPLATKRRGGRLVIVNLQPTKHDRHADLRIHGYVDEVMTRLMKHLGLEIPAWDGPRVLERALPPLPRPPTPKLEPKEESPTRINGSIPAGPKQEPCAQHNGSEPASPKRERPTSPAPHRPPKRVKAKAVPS

[13] = target: T2, Oxysterols receptor LXR-alpha (Homo sapiens) (UniProt Q13133); test: Inhibition of LXRalpha in human HepG2 cells expressing LXRE at 2.5 to 5 uM preincubated for 30 mins followed by T0901317 addition and measured after 24 hrs by Dual-glo luciferase assay; assay type: cell-based; conditions: dose 2.5-5 µM, time 24.5 hrs
T2 sequence (whole entry): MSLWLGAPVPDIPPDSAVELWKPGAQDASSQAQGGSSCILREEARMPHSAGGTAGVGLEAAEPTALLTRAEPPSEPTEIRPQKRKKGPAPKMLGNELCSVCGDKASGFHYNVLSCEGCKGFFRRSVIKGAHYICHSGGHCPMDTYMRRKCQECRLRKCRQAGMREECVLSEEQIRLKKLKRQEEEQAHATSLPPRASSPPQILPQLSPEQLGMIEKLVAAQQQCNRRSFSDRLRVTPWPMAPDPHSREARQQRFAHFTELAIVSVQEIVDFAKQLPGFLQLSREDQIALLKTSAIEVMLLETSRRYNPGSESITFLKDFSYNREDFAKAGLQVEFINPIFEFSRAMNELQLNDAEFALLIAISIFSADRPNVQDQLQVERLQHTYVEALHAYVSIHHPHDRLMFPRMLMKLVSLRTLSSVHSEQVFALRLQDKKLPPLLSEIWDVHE

[14] = tested on: AML12; test: Downregulation of SREBP-1c expression level in mouse AML12 cells at 10 uM pretreated with compound for 30 mins followed by T0901317 addition and measured after 12 hrs by RT-qPCR analysis; assay type: functional, cell-based; conditions: time 12.5 hrs
[15] = Metabolic stability in human liver microsomes at 1 uM measured after 30 mins in presence of NADPH regeneration system by LC-MS/MS analysis; assay type: ADME, Microsome; conditions: read-out: Stability
[16] = tested on: Hepatocyte; test: Lipid lowering effect on palmitic acid induced lipid accumulation in mouse Hepatocyte at 5 uM incubated for 30 mins by Oil red O staining based analysis; assay type: functional, cell-based

For `COc1ccccc1Nc1c(N[C@H]2CC[C@H](Oc3ccc([N+](=O)[O-])cc3)CC2)c(=O)c1=O`, the Activity [1] was “Active”, the Activity [2] was “Active” and the inhibition [3] was “Dose-dependent-effect”. For the same molecule, the Activity [4] was “inactive”, the inhibition at 0.25 h, 10 µM [5] was 41.1% and the Activity [6] was “Active”. The Activity [7] was “Active”, the Activity [8] was “Active” and the inhibition at 0.25 h, 10 µM [9] was 91.6%. The remaining at 0.5 h, 1 µM [10] was 32.5%, the clearance [11] was 13.3 mL/min/kg and the Activity [12] was “Active”. For the same molecule, the inhibition [13] was “Active”, the Activity [14] was “Active” and the remaining at 0.5 h, 1 µM [15] was 34.2%. The Activity [16] was “Active”.
